Results on nine compounds are retold here after patent publication US6096743A, “1,2,3,4-tetrahydroquinoxalinedione derivative” (Yamanouchi Pharmaceuticals Co., Ltd., priority 1994, dated 2000).

The test system of one data set is neuronal culture system. As to conditions: substance alone; cited from earlier work.
The test system of the next data set is AMPA/kainate receptor. The note with it: cited from earlier work.
Data set [1] concerns experimental animal models suffering from cerebral ischemia. The note with it: in vivo; cited from earlier work.
The next data set has as its target AMPA receptor. Briefly: inhibitory activity against the binding of [3H]-AMPA (rat cerebral membrane). The note with it: about 45 nM [3H]-AMPA, 45 minutes on ice water, non-specific: 10 μM quisqualic acid, read-out: Ki value, inhibition of [3H]-AMPA binding. On the procedure: Inhibitory activity against the binding with [^3 H]-AMPA, kainic acid neurotoxicity and audiogenic seizure were confirmed as follows:
1) Measurement of inhibitory activity against the binding of [^3 H]-AMPA:
On ice water, 0.5 ml in total of a reaction liquid containing about 45 nM [^3 H]-AMPA [2-amino-3-(3-hydroxy-5-methyl-4-isoxazolyl)propionic acid], about […] of a sample of a rat cerebral membrane and a test compound was reacted for 45 minutes. The amount of [^3 H]-AMPA bound to the AMPA receptor was measured by the filtration method. A portion substituted by 10 μM quisqualic acid in the total bound amount was taken as the specific binding amount. Evaluation of the test compound was carried out by determining the binding inhibition ratio against the specific binding.

The subject of data set [2] is DBA/2 mouse (audiogenic seizure). Briefly: audiogenic seizure inhibitory action in DBA/2 mouse. The data set is classed as in vivo. The note with it: ip, 0.25 h, intraperitoneal, 15 minutes before stimulation by sound of 12 kHz and 120 dB, male 21 to 28-day-old mice, read-out: minimum effective dose (MED), suppression of audiogenic seizure. On the procedure:
3) Measurement of audiogenic seizure inhibitory action in DBA/2 mouse
Ten male 21 to 28-day-old mice were exposed to auditory and stimulation by the sound of 12 kHz and 120 dB in a sound proof box for one minute or until these mice cause tonic seizure. The test compound was suspended in a 0.5% methylcellulose solution or dissolved in physiological saline and the resulting suspension or solution was intraperitoneally administered 15 minutes before the stimulation by the sound. The drug efficacy was evaluated by presence or absence of the appearance of seizure and the minimum effective dose (MED) was determined.

Data set [3] has as its system hippocampal neuron (kainic acid neurotoxicity). The experiment in a line: inhibitory activity against kainic acid neurotoxicity in primary culture of hippocampal neurons (LDH release). The data set is classed as cell-based. The note with it: 300 μM kainic acid, 24 hours, fetal rat hippocampal neuron, read-out: IC50, inhibition of neuronal death caused by kainic acid. On the procedure:
2) Measurement of inhibitory activity against kainic acid neurotoxicity:
Inhibitory action of the invention compound against kainic acid neurotoxicity was investigated using the primary culture system of the hippocampal neuron of a fetal rat.
(1) Incubation conditions
The hippocamp was cut out from a brain of the 18 to 20-day-old fetal rat and was subjected to enzyme treatment with papain and DNase I to disperse the cells. The cells so obtained were floated on MEM containing 10% serum and then were inoculated on a 48-well plate treated in advance with poly-I-lysine in a concentration of 4×10^5 cell/cm^2. Twenty four hours later, the serum was replaced by a serum-free medium. The medium replacement was carried out twice a week. The cells which were cultivated for at least 6 days were provided for the following test.
(2) Inhibition against kainic acid neurotoxicity
Neurotoxicity was expressed by an activity of lactate dehydrogenase released in the culture medium by the cell death. As a control, neurons which were exposed to a serum-free medium containing 300 μM kainic acid for 24 hours were used. Each compound, together with 300 μM kainic acid, was allowed to act on the neuron for 24 hours and inhibitory action of each compound against neuronal death caused by kainic acid was evaluated.

The nature of data set [4]: solubility in phosphate buffers of pH 5, 6, 7 and 8. Format: physicochemical. As to conditions: aqueous buffer. On the procedure:
4) Measurement of solubility
To a 0.1M aqueous solution of potassium dihydrogenphosphate, a 0.1M aqueous solution of […] was added, whereby buffers having pH of 5, 6, 7 and 8 were prepared, respectively.
Measurement of Solubility:
About 5 mg portions of the invention compound were weighed precisely in four glass test tubes and 0.1 ml phosphate buffers having pH 5, 6, 7 and 8 were added, respectively, followed by thorough shaking. The value obtained in accordance with the following equation was taken as the solubility. [formula]

For data set [5], the system named is experimental animal models suffering from neuropathy, epilepsy or cerebral ischemia. As to conditions: in vivo; cited from earlier work.
[6] abbreviates: phosphate buffer pH 6, read-out: solubility, pH 6.

Converted amounts (≈) assume the structure as drawn. Read-outs that look alike come from different tables or passages of the source.

`C=C(C)[C@H]1CN[C@H](C(=O)O)[C@H]1CC(=O)O` [kainic acid]: in the data set on neuronal culture system, the “neuronal cell death in neuronal culture (in words)” value is listed as “causes marked neuronal cell death”. Moreover, the “affinity with the AMPA/kainate receptor (in words)” value with AMPA/kainate receptor is reported as “low affinity”.

On to `NS(=O)(=O)c1cccc2c1c([N+](=O)[O-])cc1[nH]c(=O)c(=O)[nH]c12` [NBQX], for which the “effect in experimental animal models of cerebral ischemia (in words)” value in data set [1] is reported as “effective”.

Regarding `NC1CCN(O)C1=O` (stereo not shown) [HA-966], in data set [1], the “effect in experimental animal models of cerebral ischemia (in words)” value is on record as “effective”.

Regarding `O=C(O)Cn1c(=O)c(=O)[nH]c2cc([N+](=O)[O-])c(-n3ccnc3)cc21` [Example 1, 2-[2,3-dioxo-7-(1H-imidazol-1-yl)-6-nitro-1,2,3,4-tetrahydroquinoxalin-1-yl]acetic acid], the inhibition constant Ki on AMPA receptor was 730 nM. In data set [2], the minimal effective dose was 3 mg/kg. For the same compound, the IC50 in data set [3] worked out at 800 nM. Also, the solubility in data set [4] (phosphate buffer pH 5, read-out: solubility, pH 5) came to 2490 µg/mL (≈ 7.51 mM); in data set [4] (setting [6]), 2620 µg/mL (≈ 7.91 mM); in data set [4] (phosphate buffer pH 7, read-out: solubility, pH 7), 3640 µg/mL (≈ 11 mM); in data set [4] (phosphate buffer pH 8, read-out: solubility, pH 8) it was 5130 µg/mL (≈ 15.5 mM).

Regarding `O=C(O)Cn1c(=O)c(=O)[nH]c2cc(OCc3ccccc3)c(-n3ccnc3)cc21` [Example 19, 2-[6-benzyloxy-2,3-dioxo-7-(1H-imidazol-1-yl)-1,2,3,4-tetrahydroquinoxalin-1-yl]acetic acid], the Ki at AMPA receptor was determined as 70 nM. Further, in data set [2], the minimal effective dose is 1 mg/kg. Also, the IC50 in data set [3] worked out at 480 nM.

As to `Cc1onc(O)c1CC(N)C(=O)O` (stereo not shown) [AMPA, 2-amino-3-(3-hydroxy-5-methyl-4-isoxazolyl)propionic acid], in the data set with neuronal culture system, the “neuronal cell death in neuronal culture (in words)” value is reported as “weak”. Besides, the “affinity with the AMPA/kainate receptor (in words)” value in the data set on AMPA/kainate receptor is listed as “high affinity”.

As to `O=C(O)Cn1c(=O)c(=O)[nH]c2cc(C(F)(F)F)c(-n3ccnc3)cc21` [Example 9, 2-[2,3-dioxo-7-(1H-imidazole-1-yl)-6-trifluoromethyl-1,2,3,4-tetrahydroquinoxalin-1-yl]acetic acid], the Ki at AMPA receptor amounted to 93 nM. Further, in data set [2], the minimal effective dose stood at 10 mg/kg. The IC50 in data set [3] was 960 nM. The solubility in data set [4] (setting [6]) was found to be 4100 µg/mL (≈ 11.6 mM).

Regarding `NC(CCCP(=O)(O)O)C(=O)O` (stereo not shown) [2-amino-5-phosphonovalerianic acid], the “effect in experimental animal models of neuropathy, epilepsy or cerebral ischemia (in words)” value in data set [5] is “effective”.

In the case of `NC(CCCCCP(=O)(O)O)C(=O)O` (stereo not shown) [2-amino-7-phosphonoheptanic acid], the “effect in experimental animal models of neuropathy, epilepsy or cerebral ischemia (in words)” value in data set [5] is “effective”.
